The target of this test is T1, human APJ receptor (Homo sapiens, UniProt P35414).
T1 construct: expressed in transfected cells; host or cells: HEK293
T1 sequence (P35414 1-380): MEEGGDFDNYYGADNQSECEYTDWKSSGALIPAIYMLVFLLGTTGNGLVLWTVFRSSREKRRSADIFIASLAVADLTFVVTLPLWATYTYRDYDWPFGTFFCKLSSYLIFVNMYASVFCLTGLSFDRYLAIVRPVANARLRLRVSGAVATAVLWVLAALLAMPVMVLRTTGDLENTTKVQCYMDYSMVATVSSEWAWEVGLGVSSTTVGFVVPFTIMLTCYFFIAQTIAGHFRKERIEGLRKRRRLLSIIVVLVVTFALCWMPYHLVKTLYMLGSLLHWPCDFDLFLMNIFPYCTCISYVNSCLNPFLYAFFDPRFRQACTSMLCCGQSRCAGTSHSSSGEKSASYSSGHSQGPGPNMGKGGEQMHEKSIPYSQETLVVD
The experiment in a line: Intracellular cAMP accumulation assay (APJ hcAMP, HTRF). The class given is cell-based. The conditions noted are these: HEK293 cells stably expressing human APJ receptor; inhibition of forskolin-mediated cAMP production; read-out: APJ cAMP Potency range. How it is done:
Intracellular cAMP Accumulation Assay
HEK293 cells stably expressing human APJ receptor were used to assess the activity of compounds. Cultured cells were detached and resuspended in the cAMP Homogeneous Time-Resolved Fluorescence (HTRF) assay buffer (Cisbio cat; #62AM4PEJ). The assay was performed in 384-well assay plates (Perkin-Elmer; cat #6008289) according to assay protocol provided by the manufacturer. Serial dilutions of a compound together with assay buffer containing […] IBMX and 2 μM forskolin were added to each well containing 5,000 cells and incubated for 30 minutes at room temperature. Subsequently, cAMP D2 reagent was added in the lysis buffer followed by the EuK antibody (Cisbio; cat #62AM4PEJ) and incubated for 60 min. The fluorescence emission ratio was measured using fluorometer. The intracellular cAMP concentrations (compound-stimulated inhibition of forskolin-mediated cAMP production) were calculated by extrapolation from a standard curve using known cAMP concentrations. The EC50 values were obtained by fitting the data to a sigmoidal concentration-response curve with variable slope. The maximal achievable inhibition of forskolin-induced cAMP levels (Ymax) for each compound was expressed as relative percentage of inhibition attained using pyroglutamated apelin-13 ((Pyr1)apelin-13) peptide, which was set to 100%.
The examples disclosed below were tested in the APJ in vitro assays described above and were found having human APJ cyclic AMP (hcAMP) activity. The EC50 value of each compound is presented at the end of the example description.
The biological activity of the exemplified compounds of this invention determined by the assay described above is shown at the end of each example.
(Cyclic AMP is a second messenger, typically raised through Gs and lowered through Gi signalling.)

Structures are written as SMILES.

`CCCCc1nc(O)c(Cc2coc(-c3ccc(Cl)cc3)n2)c(=O)n1-c1c(OC)cccc1OC` [Example 11, 2-butyl-5-{[2-(4-chlorophenyl)-1,3-oxazol-4-yl]methyl}-3-(2,6-dimethoxyphenyl)-6-hydroxy-3,4-dihydropyrimidin-4-one]: the EC50 fell in the range of 0.01 to 10 nM.

With `CC[C@@H](c1ccccc1)n1c(-c2nc(C)cs2)nc(=O)c(Cc2ccc(-c3ccnc(F)c3C)c(F)c2)c1O` [Example 118, 5-{[3-fluoro-4-(2-fluoro-3-methylpyridin-4-yl)phenyl]methyl}-6-hydroxy-2-(4-methyl-1,3-thiazol-2-yl)-1-[(1S)-1-phenylpropyl]-1,4-dihydropyrimidin-4-one], the EC50 was in the range of 0.01 to 10 nM.

As for `CCCCc1nc(=O)c(Cc2ccc(-c3ccncc3C)cc2)c(O)n1[C@@H](CC)c1cccc(C#N)c1` [Example 98, 3-[(1S)-1-(2-butyl-6-hydroxy-5-{[4-(3-methylpyridin-4-yl)phenyl]methyl}-4-oxo-1,4-dihydropyrimidin-1-yl)propyl]benzonitrile], the EC50 fell in the range of 0.01 to 10 nM.

As for `CCc1cccc(CC)c1-n1c(-c2ccn(C)n2)nc(=O)c(Cc2ccc(-c3ccnc(F)c3C)cc2F)c1O` [Example 86, 1-(2,6-diethylphenyl)-5-{[2-fluoro-4-(2-fluoro-3-methylpyridin-4-yl)phenyl]methyl}-6-hydroxy-2-(1-methyl-1H-pyrazol-3-yl)-1,4-dihydropyrimidin-4-one], the EC50 lay in the range of 0.01 to 10 nM.

`CCc1cccc(CC)c1-n1c(-c2nc(C)cs2)nc(=O)c(Cc2ccc(-c3ccnc(F)c3C)c(F)c2)c1O` [Example 73, 1-(2,6-diethylphenyl)-5-{[3-fluoro-4-(2-fluoro-3-methylpyridin-4-yl)phenyl]methyl}-6-hydroxy-2-(4-methyl-1,3-thiazol-2-yl)-1,4-dihydropyrimidin-4-one]: the EC50 lay in the range of 0.01 to 10 nM.

Take `CC[C@@H](c1ccccc1)n1c(-c2nc(C)cs2)nc(=O)c(Cc2ccc(-c3ccc(F)cc3C(N)=O)c(F)c2)c1O` [Example 120, 2′,4-difluoro-4′-{[6-hydroxy-2-(4-methyl-1,3-thiazol-2-yl)-4-oxo-1-[(1S)-1-phenylpropyl]-1,4-dihydropyrimidin-5-yl]methyl}-[1,1′-biphenyl]-2-carboxamide]: the EC50 lay in the range of 0.01 to 10 nM.

Take `CC[C@@H](c1cc(F)cc(F)c1)n1c(-c2ccn(CC)n2)nc(=O)c(Cc2ccc(-c3ccc(F)nc3C)cc2)c1O` [Example 134, 1-[(1S)-1-(3,5-difluorophenyl)propyl]-2-(1-ethyl-1H-pyrazol-3-yl)-5-{[4-(6-fluoro-2-methylpyridin-3-yl)phenyl]methyl}-6-hydroxy-1,4-dihydropyrimidin-4-one]: the EC50 lay in the range of 0.01 to 10 nM.

As to `CCc1cccc(CC)c1-n1c(-c2ccn(C)n2)nc(=O)c(Cc2ccc(-c3ccnc(F)c3C)c(F)c2)c1O` [Example 71, 1-(2,6-diethylphenyl)-5-{[3-fluoro-4-(2-fluoro-3-methylpyridin-4-yl)phenyl]methyl}-6-hydroxy-2-(1-methyl-1H-pyrazol-3-yl)-1,4-dihydropyrimidin-4-one], the EC50 is 0.01 to 10 nM.

Consider `CCCCc1nc(O)c(Cc2cnn(Cc3ccccc3)c2)c(=O)n1-c1c(OC)cccc1OC` [Example 30, 5-[(1-benzyl-1H-pyrazol-4-yl)methyl]-2-butyl-3-(2,6-dimethoxyphenyl)-6-hydroxy-3,4-dihydropyrimidin-4-one], for which the EC50 lay within 0.01 to 10 nM.

For `CCc1cccc(CC)c1-n1c(-c2ccn(CC(C)C)n2)nc(=O)c(Cc2ccc(-c3ccc(F)cc3C(N)=O)c(F)c2)c1O` [Example 92, 4′-{[1-(2,6-diethylphenyl)-6-hydroxy-2-[1-(2-methylpropyl)-1H-pyrazol-3-yl]-4-oxo-1,4-dihydropyrimidin-5-yl]methyl}-2′,4-difluoro-[1,1′-biphenyl]-2-carboxamide], the EC50 was in the range of 10 to 100 nM.

With `CCCCc1nc(O)c(Cc2ccc(-n3ccc(C)cc3=O)cc2)c(=O)n1-c1c(OC)cccc1OC` [Example 43, 2-butyl-3-(2,6-dimethoxyphenyl)-6-hydroxy-5-{[4-(4-methyl-2-oxo-1,2-dihydropyridin-1-yl)phenyl]methyl}-3,4-dihydropyrimidin-4-one], the EC50 lay within 0.01 to 10 nM.

As to `CCc1cccc(CC)c1-n1c(-c2csc(C)n2)nc(=O)c(Cc2ccc(-c3ccnc(F)c3C)c(F)c2)c1O` [Example 78, 1-(2,6-diethylphenyl)-5-{[3-fluoro-4-(2-fluoro-3-methylpyridin-4-yl)phenyl]methyl}-6-hydroxy-2-(2-methyl-1,3-thiazol-4-yl)-1,4-dihydropyrimidin-4-one], the EC50 was in the range of 0.01 to 10 nM.

With `CCCCc1nc(O)c(Cc2ccc(-c3ncon3)c(F)c2)c(=O)n1-c1c(OC)cccc1OC` [Example 13, 2-butyl-3-(2,6-dimethoxyphenyl)-5-{[3-fluoro-4-(1,2,4-oxadiazol-3-yl)phenyl]methyl}-6-hydroxy-3,4-dihydropyrimidin-4-one], the EC50 is 0.01 to 10 nM.

As to `CCCCc1nc(=O)c(Cc2ccc(-c3ccc(F)nc3C)cc2)c(O)n1-c1c(CC)cccc1CC` [Example 64, 2-butyl-1-(2,6-diethylphenyl)-5-{[4-(6-fluoro-2-methylpyridin-3-yl)phenyl]methyl}-6-hydroxy-1,4-dihydropyrimidin-4-one], the EC50 lay in the range of 0.01 to 10 nM.

Consider `CCCCc1nc(=O)c(Cc2cccc(-c3ccncc3C)c2)c(O)n1[C@@H](CC)c1cc(F)cc(F)c1` [Example 127, 2-butyl-1-[(1S)-1-(3,5-difluorophenyl)propyl]-6-hydroxy-5-{[3-(3-methylpyridin-4-yl)phenyl]methyl}-1,4-dihydropyrimidin-4-one], for which the EC50 was 10 to 100 nM.

Turning to `CCCCc1nc(=O)c(Cc2cccc(-c3ccnc(F)c3C)c2)c(O)n1[C@@H](CC)c1cc(F)cc(F)c1` [Example 128, 2-butyl-1-[(1S)-1-(3,5-difluorophenyl)propyl]-5-{[3-(2-fluoro-3-methylpyridin-4-yl)phenyl]methyl}-6-hydroxy-1,4-dihydropyrimidin-4-one], the EC50 was 10 to 100 nM.

For the compound `CCCCc1nc(=O)c(Cc2ccc(-c3ccc(F)nc3)cc2)c(O)n1[C@@H](CC)c1cccc(C#N)c1` [Example 97, 3-[(1S)-1-(2-butyl-5-{[4-(6-fluoropyridin-3-yl)phenyl]methyl}-6-hydroxy-4-oxo-1,4-dihydropyrimidin-1-yl)propyl]benzonitrile], the EC50 was 0.01 to 10 nM.

For `CCc1cccc(CC)c1-n1c(-c2ccn(CC(C)C)n2)nc(=O)c(Cc2ccc(-c3ccnc(F)c3C)c(F)c2)c1O` [Example 91, 1-(2,6-diethylphenyl)-5-{[3-fluoro-4-(2-fluoro-3-methylpyridin-4-yl)phenyl]methyl}-6-hydroxy-2-[1-(2-methylpropyl)-1H-pyrazol-3-yl]-1,4-dihydropyrimidin-4-one], the EC50 was 100 to 300 nM.

With `COc1cccc(OC)c1-n1c(COC(C)C)nc(O)c(Cc2ccc(-n3cc(C)ccc3=O)cc2)c1=O` [Example 58, 3-(2,6-dimethoxyphenyl)-6-hydroxy-5-{[4-(5-methyl-2-oxo-1,2-dihydropyridin-1-yl)phenyl]methyl}-2-[(propan-2-yloxy)methyl]-3,4-dihydropyrimidin-4-one], the EC50 lay within 0.01 to 10 nM.

Take `Cc1ncccc1-c1ccc(Cc2c(O)n([C@H](c3cc(F)cc(C#N)c3)C(C)C)c(COC(C)C)nc2=O)cc1` [Example 121, 3-fluoro-5-[(1S)-1-(6-hydroxy-5-{[4-(2-methylpyridin-3-yl)phenyl]methyl}-4-oxo-2-[(propan-2-yloxy)methyl]-1,4-dihydropyrimidin-1-yl)-2-methylpropyl]benzonitrile]: the EC50 lay within 10 to 100 nM.

In the case of `COc1cccc(OC)c1-n1c(CCC2CC2)nc(O)c(Cc2ccc(-n3cc(Cl)ccc3=O)cc2)c1=O` [Example 57, 5-{[4-(5-chloro-2-oxo-1,2-dihydropyridin-1-yl)phenyl]methyl}-2-(2-cyclopropylethyl)-3-(2,6-dimethoxyphenyl)-6-hydroxy-3,4-dihydropyrimidin-4-one], the EC50 lay within 0.01 to 10 nM.

On to `CCCCc1nc(O)c(Cc2ccc(-n3cc(C)ccc3=O)cc2)c(=O)n1-c1c(OC)cccc1OC` [Example 50, 2-butyl-3-(2,6-dimethoxyphenyl)-6-hydroxy-5-{[4-(5-methyl-2-oxo-1,2-dihydropyridin-1-yl)phenyl]methyl}-3,4-dihydropyrimidin-4-one], for which the EC50 lay in the range of 0.01 to 10 nM.

On to `CCCCc1nc(=O)c(Cc2cccc(-c3cccnc3C)c2)c(O)n1[C@@H](CC)c1cc(F)cc(F)c1` [Example 129, 2-butyl-1-[(1S)-1-(3,5-difluorophenyl)propyl]-6-hydroxy-5-{[3-(2-methylpyridin-3-yl)phenyl]methyl}-1,4-dihydropyrimidin-4-one], for which the EC50 was in the range of 10 to 100 nM.

The values are drawn from patent US11390616B2 (BRISTOL-MYERS SQUIBB COMPANY, priority 2015, dated 2022).
